This passage reports EC50 and IC50 results from patent publication US10913736B2 (UNIVERSITY OF WASHINGTON, priority 2014, dated 2021).

Assay [1] relates to T. brucei. Put plainly: Growth inhibition assay of T. brucei cell cultures (Alamar Blue, 48 h). Format: cell-based.
The subject of assay [2] is T. cruzi. The experiment in a line: T. cruzi growth inhibition EC50. Format: cell-based. As to conditions: Trypanosoma cruzi; read-out: C) T. cruzi EC50.
Assay [3] deals with MetRS (T. brucei) (Trypanosoma brucei brucei, UniProt Q38C91). The experiment in a line: MetRS (T. brucei) ATP depletion assay using Kinase-Glo. The assay is classed as biochemical.
Assay [4] has as its target MetRS (S. aureus) (Staphylococcus aureus, UniProt Q5HII6). The experiment in a line: biochemical. As to conditions: ATP depletion, Kinase-Glo; read-out: H) MetRS (S. aureus) ATP depletion assay using Kinase-Glo with modified cpd dilution method, IC50. A general note: Kinase-Glo measures the ATP left after a reaction by luminescence.
[5] abbreviates: Trypanosoma brucei; read-out: B) T. brucei EC50.

“And” between values parts separate entries of the source, which are not always exact repeats. Equal values may be shown once. Read-outs that look alike come from different tables or passages of the source. Some results are limits rather than exact numbers.

Chain of MetRS (T. brucei) (Q38C91 entry or part of it): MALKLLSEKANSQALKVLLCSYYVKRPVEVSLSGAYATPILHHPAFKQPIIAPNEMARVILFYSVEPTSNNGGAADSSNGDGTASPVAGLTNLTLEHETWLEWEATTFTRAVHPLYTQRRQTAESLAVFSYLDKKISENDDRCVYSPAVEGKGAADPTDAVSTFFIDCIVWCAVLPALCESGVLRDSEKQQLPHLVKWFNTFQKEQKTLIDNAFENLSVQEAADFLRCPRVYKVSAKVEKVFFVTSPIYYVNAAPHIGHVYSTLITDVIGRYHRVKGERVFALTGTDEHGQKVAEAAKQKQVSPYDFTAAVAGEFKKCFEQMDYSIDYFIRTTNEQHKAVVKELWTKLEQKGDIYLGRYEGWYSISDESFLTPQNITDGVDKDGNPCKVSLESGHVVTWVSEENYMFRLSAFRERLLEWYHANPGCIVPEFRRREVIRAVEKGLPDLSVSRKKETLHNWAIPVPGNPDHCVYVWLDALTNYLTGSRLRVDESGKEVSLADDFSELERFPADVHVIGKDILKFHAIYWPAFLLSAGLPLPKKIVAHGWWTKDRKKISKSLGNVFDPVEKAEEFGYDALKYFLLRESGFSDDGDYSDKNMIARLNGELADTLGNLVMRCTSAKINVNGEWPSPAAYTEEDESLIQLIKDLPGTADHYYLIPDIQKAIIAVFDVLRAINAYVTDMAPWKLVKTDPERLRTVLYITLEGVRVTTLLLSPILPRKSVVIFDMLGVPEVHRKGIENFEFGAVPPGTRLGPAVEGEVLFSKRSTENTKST
Chain of MetRS (S. aureus) (Q5HII6 whole entry): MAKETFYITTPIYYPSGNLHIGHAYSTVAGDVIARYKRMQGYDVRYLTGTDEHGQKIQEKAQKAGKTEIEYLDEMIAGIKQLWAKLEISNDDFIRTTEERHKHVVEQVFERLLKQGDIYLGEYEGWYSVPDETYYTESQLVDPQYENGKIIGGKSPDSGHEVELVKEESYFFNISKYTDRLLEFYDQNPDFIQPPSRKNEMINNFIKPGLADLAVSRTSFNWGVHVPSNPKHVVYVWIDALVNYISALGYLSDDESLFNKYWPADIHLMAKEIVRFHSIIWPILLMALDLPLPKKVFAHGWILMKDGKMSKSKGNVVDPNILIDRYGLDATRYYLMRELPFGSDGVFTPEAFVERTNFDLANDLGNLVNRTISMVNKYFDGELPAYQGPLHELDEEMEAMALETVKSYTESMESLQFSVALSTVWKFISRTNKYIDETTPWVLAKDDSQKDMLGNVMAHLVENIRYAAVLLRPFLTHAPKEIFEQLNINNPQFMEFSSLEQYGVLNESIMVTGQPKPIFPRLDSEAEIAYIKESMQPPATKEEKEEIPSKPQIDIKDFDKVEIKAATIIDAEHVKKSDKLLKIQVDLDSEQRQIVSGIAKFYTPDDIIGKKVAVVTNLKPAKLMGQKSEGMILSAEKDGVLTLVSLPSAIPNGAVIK

In the case of `Cc1ccc2[nH]c(NCCCNCc3cc(Cl)cc(Cl)c3)nc2n1` [Compound 1599, N1-(3,5-dichlorobenzyl)-N3-(5-methyl-1H-imidazo[4,5-b]pyridin-2-yl)propane-1,3-diamine], the EC50 in assay [1] (setting [5]) was found to be 662 nM; in assay [2], 2910 nM. For the same molecule, in assay [3], the IC50 was 45 nM and 59 nM.
As for `N#Cc1c(NCCCNCc2cc(Cl)cc(Cl)c2)[nH]c2cccnc12` [Compound 1627, 2-(3-(3,5-dichlorobenzylamino)propylamino)-1H-pyrrolo[3,2-b]pyridine-3-carbonitrile], the concentration for a half-maximal effect (EC50) in assay [1] (setting [5]) was greater than 9.08 nM; in assay [1] (read-out: B) T. brucei EC50), 4.6 nM; in assay [2], 623 nM. The molecule further came in with an IC50 in assay [3] of 61 nM.
With `OC(CNCc1cc(Cl)cc(Cl)c1)CNc1nc2cccnc2[nH]1` (stereo not shown) [Compound 1634, 1-((1H-imidazo[4,5-b]pyridin-2-yl)amino)-3-((3,5-dichlorobenzyl)amino)propan-2-ol], the EC50 in assay [1] (setting [5]) was 121 nM; in assay [2], 9760 nM. The same molecule returned an IC50 in assay [3] of 133 nM.
For `O=C1N[C@@H](Cc2ccc(Cl)cc2Cl)C(=O)N1Cc1nc2ccccc2[nH]1` [Compound 1754, (S)-3-((1H-benzo[d]imidazol-2-yl)methyl)-5-(2,4-dichlorobenzyl)imidazolidine-2,4-dione], the figures for the EC50 in assay [1] (setting [5]) and in assay [2] were 5890 nM and greater than 5000 nM, respectively. Also, the IC50 in assay [3] is greater than 10000 nM.
For `NN(C(=O)/C=C/Oc1ccc(Cl)cc1Cl)c1nc2ccccc2[nH]1` [Compound 1766, (2E)-N-(1H-1,3-benzodiazol-2-yl)-3-(2,4-dichlorophenoxy)prop-2-enehydrazide] the same measures were 3530 nM, greater than 5000 nM and 297 nM.
For the molecule `Clc1cc(Cl)cc(CNC2CCCC(c3nc4nc(Cl)ccc4[nH]3)C2)c1` (stereo not shown) [Compound 1788, 3-(5-chloro-1H-imidazo[4,5-b]pyridin-2-yl)-N-(3,5-dichlorobenzyl)cyclohexanamine], the half-maximal effective concentration (EC50) in assay [1] (setting [5]) is 359 nM; in assay [2], 4170 nM. In assay [3], this molecule yielded an IC50 of 124 nM.
For `CC(=O)N(Cc1cc(Cl)cc(Cl)c1)C1CCCC(c2nc3nc(Cl)ccc3[nH]2)C1` (stereo not shown) [Compound 1789, N-(3-(5-chloro-1H-imidazo[4,5-b]pyridin-2-yl)cyclohexyl)-N-(3,5-dichlorobenzyl)acetamide] the same measures were 2810 nM, 4990 nM and 89 nM.
Turning to `CC(=O)N(Cc1cc(Cl)cc(Cl)c1)C1CCCC(c2nc3nc(F)ccc3[nH]2)C1` (stereo not shown) [Compound 1801, N-(3,5-dichlorobenzyl)-N-(3-(5-fluoro-1H-imidazo[4,5-b]pyridin-2-yl)cyclohexyl)acetamide], in assay [2], the EC50 was 252 nM. The IC50 in assay [3] was 533 nM and 569 nM.
With `Clc1cc(Cl)cc(CNc2cccc(-c3nc4ccc(Cl)nc4[nH]3)c2)c1` [Compound 1966, 3-{5-chloro-3H-imidazo[4,5-b]pyridin-2-yl}-N-[(3,5-dichlorophenyl)methyl]amine], the figures for the IC50 in assay [4] and in assay [3] were 5730 nM and 72 nM, respectively. Moreover, the EC50 in assay [1] (setting [5]) was 1030 nM.
For the molecule `Clc1cc(Cl)cc(NCCCNc2nc3ccc(Cl)nc3[nH]2)c1` [Compound 1967], the IC50 is greater than 1000 nM in assay [4] and 88 nM in assay [3]. Further, the EC50 in assay [1] (setting [5]) is 2300 nM.
As to `O=C(CNc1nc2ccc(Cl)nc2[nH]1)NCc1cc(Cl)cc(Cl)c1` [Compound 1970, 2-((5-chloro-3H-imidazo[4,5-b]pyridin-2-yl)amino)-N-(3,5-dichlorobenzyl)acetamide], the results for the IC50 in assay [4] and in assay [3] were 1080 nM and 69 nM, respectively. Moreover, the EC50 in assay [1] (setting [5]) turned out to be 2980 nM.
In the case of `CN(CCN(Cc1cc(Cl)cc(Cl)c1)C(=O)CO)c1nc2ccc(Cl)nc2[nH]1` [Compound 1971, N-(3,5-dichlorobenzyl)-N-(2-(5-chloro-N-methyl-1H-imidazo[4,5-b]pyridin-2-ylamino)ethyl)-2-hydroxyacetamide], the 50% inhibitory concentration (IC50) amounted to 85 nM in assay [4] and 13 nM in assay [3]. Besides, the 50% effective concentration (EC50) in assay [1] (setting [5]) is 62.3 nM; in assay [1] (read-out: B) T. brucei EC50), 40.4 nM.

A word on the EC50: it is the midpoint of the concentration-response curve. In general, IC50 refers to the concentration that inhibits the measured activity by half.
